Test results reported in US11137400B2, “Methods for predicting and determining responsiveness to activators of JNK kinase” (UNIVERSITY OF PITTSBURGH-OF THE COMMONWEALTH SYSTEM OF …, priority 2017, dated 2021).
Entries after “also recorded” stand apart in the source; their conditions may differ. Where a SMILES comes first, the peptide text is derived from it. The star is where a group is joined. Cbz = O=C(OCc1ccccc1)*

Key:
p-JNKs = assay: ER stress time course in HEK293T cells, Western blot of phosphorylated JNKs; format: cell-based, human; details: 30-minute treatment
Procedure: (§1) hXBP1s plays an essential role in regulating BMSC support of MM cell growth. […] To test this hypothesis, the time-dependent protein expression patterns of hXBP1s and phosphorylated JNKs (p-JNKs) was determined in cells that were challenged with either a persistent or transient ER stress, induced by either thapsigargin (Thg) or dithiothrietol (DTT), respectively. […] The protein level of hXBP1s started to decline at 6-hrs, and the reduction continued till 12-hr, the end of Thg treatment. In contrast, Thg induced the phosphorylation of JNKs from 6 to 12-hrs of Thg treatment. This activation of JNKs coincided with the decrease in hXBP1s protein levels within the same time frame of Thg treatment (FIG. 1A).
DTT is a reducing agent that disrupts oxidative protein folding in the ER. Since the effects of DTT are rapidly reversible, and DTT can be readily removed by washing, it was used to mimic intermittent ER stress on cells. […]
(§2) Total cell lysates were prepared with RIPA buffer containing protease inhibitor cocktail and phosphatase inhibitor cocktails I/II (Sigma-Aldrich). After centrifugation, total cell lysates then were separated by 10% sodium dodecyl sulfate polyacrylamide gel electrophoresis and analyzed by immunoblot analysis as described previously. Signals were detected with ECL reagents (GE Healthcare Life Sciences). […]

hXBP1s [1] = assay: ER stress time course in HEK293T cells, Western blot of hXBP1s; format: cell-based, human
Procedure: as §1
DTT is a reducing agent that disrupts oxidative protein folding in the ER. Since the effects of DTT are rapidly reversible, and DTT can be readily removed by washing, it was used to mimic intermittent ER stress on cells. HEK293T cells were treated with DTT for 30 minutes, then DTT was washed away, and the cells were harvested at various time points after DTT removal. […] In addition, the cells recovered and further increased hXBP is protein expression at 2- and 5-hr post DTT removal. This process coincided with a drastic reduction in JNKs' phosphorylation (FIG. 1B).
(§3) Total cell lysates were prepared with RIPA buffer containing protease inhibitor cocktail and phosphatase inhibitor cocktails I/II (Sigma-Aldrich). After centrifugation, total cell lysates then were separated by 10% sodium dodecyl sulfate polyacrylamide gel electrophoresis and analyzed by immunoblot analysis as described previously. Signals were detected with ECL reagents (GE Healthcare Life Sciences). Semi-quantification of data was performed using Image J. For immunoprecipitation assay, Cells were washed with ice-cold PBS and lysed with lysis buffer (50 mM Tris-HCl, pH 7.5; 150 mM NaCl, 0.1% (wt/vol) Nondiet P40, 1 mM Ethylenediaminetetraacetic acid (EDTA); […]; protease inhibitor cocktail and phosphatase inhibitor cocktails I/II (Sigma-Aldrich). After overnight incubation with Anti-HA-agarose beads (Roche) or anti-hXBP1s antibody at 4° C. on a rotator, following by addition of Protein G Agarose to the reaction containing anti-hXBP1s antibody for 2 h at 4° C. Immunoprecipitates were washed three times with cold lysis buffer and boiled for 5 min in 2× Laemmli buffer for elution of immunoprecipitated HA-hXBP1s or Flag-hXBP1s complex. Samples were resolved in SDS-PAGE (Bio-Rad) and immunoblotted with corresponding antibody.

5-TGM cells = assay: Adhesion of 5-TGM cells to TNFα-treated KM101 cells; format: cell-based, mouse
Procedure: Human kidney […], human BM stromal cell lines KM101 cells, mouse MM cell line 5-TGM1, human MM cell lines ANBL-6 and MM1.S were cultured as described. Mouse macrophage cell line RAW264.7 were cultured in DMEM supplemented with 10% FBS. Isolation of primary hBMSCs was performed as described. These studies were approved by the University of Pittsburgh institutional review board and by the VA Pittsburgh Healthcare System institutional animal care and use committee. MM cell growth assay, cell adhesion assays, OCL formation assay were performed as described (Xu et al., Blood, 119:4205-4214 (2012)).

[2] = tested on: HA-hXBP1s / MYC-β-TrCP binding; assay: Co-immunoprecipitation of HA-hXBP1s with MYC-β-TrCP in HEK293T cells; format: cell-based, human; details: 10 nM JNKi for 4 hrs (FIG. 2F)
Procedure: as §3

FLAG-hXBP1s [3] = assay: Western blot of FLAG-hXBP1s (WT or S288A) in stably overexpressing KM101 cells; format: cell-based, human; details: for effect of pretreatment on anisomycin-induced repression of FLAG-hXBP1s protein level: then stimulated with anisomycin; for effect on steady-state protein level of hXBP1s S288A mutant: S288A mutant expressing KM101 cells
Procedure: as §3

IL-6 = assay: TNFα-induced IL-6 production in KM101 cells, ELISA; format: cell-based, human
Procedure: To determine hIL-6 secretion by BMSCs, supernatants from cell cultures were collected and analyzed with hIL-6 ELISA read-set go kits (eBioscience) according to the manufacturer's instructions, the mice's serum concentration of IgG2b, RANKL, IL-6 and CTX-I were measured with their respectively ELISA kit (Quidel, Roche, Roche and MyBioSource).

VCAM-1 = assay: TNFα-induced VCAM-1 protein expression in KM101 cells, Western blot; format: cell-based, human; details: for TNFα-induced VCAM-1 protein expression: KM101 cells expressing (WT) hXBP1s
Procedure: as §3

hXbp1s mRNA = assay: Real-time PCR of hXbp1s mRNA in FLAG-hXBP1s-overexpressing KM101 cells; format: cell-based, human
Procedure: Real-time PCR was performed as described previously. B-Actin was used as an internal control.

hXBP1s [4] = assay: Western blot of steady-state hXBP1s protein (endogenous and overexpressed) in HEK293T and KM101 cells; format: cell-based, human
Procedure: as §3

FLAG-hXBP1s [5] = assay: Western blot of FLAG-hXBP1s in HEK293T cells co-transfected with MYC-β-TrCP and MKK7-JNKs; format: cell-based, human; details: pretreatment of HEK293T cells
Text: Since JNKs repress hXBP1s protein expression, it was hypothesized that JNKs promote its β-TrCP binding and consequent degradation via the UPS-26S proteasome machinery. […] To determine the functional consequence of JNKs' potentiation of the physical interactions between MYC-β-TrCP and HA-hXBP1s. FLAG-XBP1s was overexpressed with a small/moderate amount of MYC-β-TrCP either in the presence or absence of MKK7-JNKs. […] Further, JNKs and MYC-β-TrCP's inhibition of FLAG-hXBP1s was abolished by pretreatment of cells with MG 132 (FIG. 2G). Consistent with the latter observation. […] Taking these observations together, it was concluded that JNKs promote the physical interactions between hXBP1s and D-TrCP, leading to the ubiquitination and consequent protein degradation of hXBP1s that results in a decrease in the steady-state levels of hXBP1s.
as §2

Structure (SMILES): O[C@H](CS)[C@H](O)CS (racemic) [DTT, dithiothreitol]
- phosphorylation of JNKs (p-JNKs): strongly induced
- basal hXBP1s protein expression (hXBP1s [1]; 30-minute treatment): quickly diminished

Structure (SMILES): CCOc1nc(NC(=O)Cc2cc(OC)ccc2OC)cc(N)c1C#N [JNKi VIII]
- TNFα-induced stromal support of adhesion of 5-TGM cells (5-TGM cells): potentiated
- basal level binding of HA-hXBP1s with MYC-β-TrCP [2]: abolished
- steady-state protein level of overexpressed (WT) FLAG-hXBP1s (FLAG-hXBP1s [3]; KM101 cells): dose-dependent up-regulation
- effect of pretreatment on anisomycin-induced repression of FLAG-hXBP1s protein level (FLAG-hXBP1s [3]; KM101 cells): largely prevented
- steady-state protein level of overexpressed (WT) FLAG-hXBP1s (FLAG-hXBP1s [3]; KM101 cells, listed as JNKi): dose-dependently increased
- effect on steady-state protein level of hXBP1s S288A mutant (FLAG-hXBP1s [3]): completely abolished
- TNFα-induced stromal production of IL-6 (IL-6): potentiated
- TNFα-induced VCAM-1 protein expression (VCAM-1): potentiated
- ANS inhibition of TNFα-induced VCAM-1 expression in presence of the substance (VCAM-1; KM101 cells, with ANS): compromised
- mRNA expression of hXbp1s (hXbp1s mRNA): no effect

Structure (SMILES): CC(C)C[C@@H](C=O)NC(=O)[C@H](CC(C)C)NC(=O)[C@H](CC(C)C)NC(=O)OCc1ccccc1 [MG132] (Cbz-Leu-Leu-Leu-aldehyde)
- steady-state level of both endogenous and overexpressed hXBP1s (hXBP1s [4]): promptly and greatly elevated
- JNKs and MYC-β-TrCP's inhibition of FLAG-hXBP1s (FLAG-hXBP1s [5]): abolished
- discrepancy in protein expression of S288A mutant and WT hXBP1s (FLAG-hXBP1s [3]; KM101 cells): abolished
- effect of pretreatment on anisomycin-induced repression of FLAG-hXBP1s protein level (FLAG-hXBP1s [3]; KM101 cells): completely blocked

Structure (SMILES): O=S(=O)(N=Cc1c(O)ccc2ccccc12)c1cccs1 [STF-083010]
- TNFα-induced stromal support of adhesion of 5-TGM cells (5-TGM cells): repressed
- JNKi's promotion of stromal support to 5-TGM cells' adhesion (5-TGM cells; with JNKi): compromised
- TNFα-induced stromal production of IL-6 (IL-6): repressed
- JNKi's promotion of stromal production of IL-6 (IL-6; with JNKi): compromised
- TNFα-induced VCAM-1 protein expression (VCAM-1): repressed
- JNKi's promotion of TNFα-induced stromal induction of VCAM-1 (VCAM-1; KM101 cells, with JNKi): compromised

Structure (SMILES): C/C=C(/C)C(=O)O[C@H]1C(C)=C2[C@H]([C@@H]1OC(=O)CCCCCCC)[C@@](C)(OC(C)=O)C[C@H](OC(=O)CCC)[C@@]1(O)[C@H]2OC(=O)[C@@]1(C)O [Thg, thapsigargin]
- time at which endogenous hXBP1s peaked (hXBP1s [1]): 4 h
- time at which up-regulation of endogenous hXBP1s was first detected (hXBP1s [1]): 2 h
- time at which hXBP1s protein level started to decline (hXBP1s [1]; reduction continued till 12-hr): 6 h
- protein expression of endogenous hXBP1s during persistent ER stress (hXBP1s [1]; treatment up to 12-hr): time-dependent up-regulation

Structure (SMILES): COc1ccc(C[C@H]2NC[C@H](O)[C@H]2OC(C)=O)cc1 [anisomycin]
- steady-state protein level of overexpressed (WT) FLAG-hXBP1s (FLAG-hXBP1s [3]; KM101 cells): drastically decreased; also recorded: greatly reduced
- effect on steady-state protein level of hXBP1s S288A mutant (FLAG-hXBP1s [3]): completely lost its inhibitory effect
- TNFα-induced VCAM-1 protein expression (VCAM-1; listed as ANS): dose-dependently repressed; also recorded: dose-dependently blocked
- inhibitory effect on TNFα-induced VCAM-1 protein expression in S288A mutant cells (VCAM-1; S288A mutant-overexpressing KM101 cells): largely abolished
- mRNA expression of hXbp1s (hXbp1s mRNA): no effect
